Assay results reported in US9132140B2, “Boronic acid derivatives and therapeutic uses thereof” (Rempex Pharmaceuticals, Inc., priority 2013, dated 2015).
Read-outs that look alike come from different tables or passages of the source.

Assays:
KPC-2 [1] = molecular target: T1, KPC-2 (Klebsiella pneumoniae, UniProt Q9F663); experiment: Inhibition of purified class A carbapenemase, biapenem cleavage; assay type: biochemical; conditions: substrate biapenem 100 μM
NDM-1 = NDM-1 (Klebsiella pneumoniae, UniProt C7C422); experiment: biochemical; conditions: substrate imipenem 100 μM
Chain of NDM-1 (C7C422 29-270, looked up, species assumed): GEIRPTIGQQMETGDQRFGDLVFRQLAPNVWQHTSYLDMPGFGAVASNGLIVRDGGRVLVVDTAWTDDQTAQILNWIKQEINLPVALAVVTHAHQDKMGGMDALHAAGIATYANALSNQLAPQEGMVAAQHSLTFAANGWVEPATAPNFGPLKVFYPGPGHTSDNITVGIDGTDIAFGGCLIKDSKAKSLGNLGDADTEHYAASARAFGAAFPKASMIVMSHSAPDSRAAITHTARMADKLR

CMY-2 = CMY-2 (Klebsiella pneumoniae, UniProt Q48434); experiment: Inhibition of purified beta-lactamase, nitrocefin cleavage; assay type: biochemical
Chain of CMY-2 (Q48434 21-381, species assumed): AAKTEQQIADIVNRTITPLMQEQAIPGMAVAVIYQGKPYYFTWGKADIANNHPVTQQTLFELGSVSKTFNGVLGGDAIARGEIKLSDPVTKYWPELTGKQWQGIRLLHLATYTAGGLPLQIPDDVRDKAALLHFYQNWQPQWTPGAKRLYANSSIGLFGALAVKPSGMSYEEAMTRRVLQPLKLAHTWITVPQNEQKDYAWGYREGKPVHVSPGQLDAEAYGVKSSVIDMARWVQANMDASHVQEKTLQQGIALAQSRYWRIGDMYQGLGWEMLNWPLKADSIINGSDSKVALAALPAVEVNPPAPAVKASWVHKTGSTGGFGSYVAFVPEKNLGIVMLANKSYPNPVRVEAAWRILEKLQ
Procedure: (§1) Purified enzymes were mixed with various concentrations of inhibitors in reaction buffer and incubated for 10 min at room temperature. Nitrocefin was added and substrate cleavage profiles were recorded at 490 nm every 10 sec for 10 min.

CTX-M-14 = CTX-M-14 (Escherichia coli, UniProt Q9L5C7); experiment: as above; assay type: biochemical
Chain of CTX-M-14 (Q9L5C7 entry or part of it): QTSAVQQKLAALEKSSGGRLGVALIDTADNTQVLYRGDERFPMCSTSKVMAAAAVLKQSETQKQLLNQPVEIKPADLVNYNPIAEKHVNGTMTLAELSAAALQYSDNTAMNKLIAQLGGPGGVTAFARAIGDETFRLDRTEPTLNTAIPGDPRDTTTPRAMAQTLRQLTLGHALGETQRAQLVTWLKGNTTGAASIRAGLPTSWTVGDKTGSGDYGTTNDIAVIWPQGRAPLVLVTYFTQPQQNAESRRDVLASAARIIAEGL
Procedure: as §1

KPC-2 [2] = molecular target: T1, KPC-2; experiment: as above; assay type: biochemical; conditions: read-out: Ki (KPC-2, NCF)
Procedure: as §1

OXA-48 = OXA-48 (Klebsiella pneumoniae, UniProt Q6XEC0); experiment: as above; assay type: biochemical; conditions: read-out: Ki (OXA-48, NCF)
Chain of OXA-48 (Q6XEC0 23-265, looked up): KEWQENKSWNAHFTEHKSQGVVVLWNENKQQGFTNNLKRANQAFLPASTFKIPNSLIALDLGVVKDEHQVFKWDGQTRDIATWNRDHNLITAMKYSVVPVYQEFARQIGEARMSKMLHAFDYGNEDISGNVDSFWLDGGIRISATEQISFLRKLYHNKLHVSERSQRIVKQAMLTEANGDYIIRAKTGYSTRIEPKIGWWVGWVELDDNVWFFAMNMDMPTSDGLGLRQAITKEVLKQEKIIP
Procedure: as §1

SHV-12 = SHV-12 (Klebsiella pneumoniae, UniProt P0AD64, E235K/G234S/L31Q); experiment: as above; assay type: biochemical; conditions: read-out: Ki (SHV-12, NCF)
Chain of SHV-12 (P0AD64 22-286 L31Q/G234S/E235K): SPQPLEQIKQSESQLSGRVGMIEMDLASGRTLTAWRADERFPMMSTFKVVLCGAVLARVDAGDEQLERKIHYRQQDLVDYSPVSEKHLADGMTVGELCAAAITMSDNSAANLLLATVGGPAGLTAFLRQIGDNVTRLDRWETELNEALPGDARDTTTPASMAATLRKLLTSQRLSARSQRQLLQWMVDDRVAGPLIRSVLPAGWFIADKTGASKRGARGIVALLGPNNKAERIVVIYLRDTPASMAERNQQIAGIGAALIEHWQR
Procedure: as §1

P99/AmpC of ECL = P99/AmpC of ECL (Enterobacter cloacae, UniProt P05364); experiment: biochemical; conditions: nitrocefin; read-out: Ki (P99/AmpC of ECL, NCF)
Chain of P99/AmpC of ECL (P05364 21-381): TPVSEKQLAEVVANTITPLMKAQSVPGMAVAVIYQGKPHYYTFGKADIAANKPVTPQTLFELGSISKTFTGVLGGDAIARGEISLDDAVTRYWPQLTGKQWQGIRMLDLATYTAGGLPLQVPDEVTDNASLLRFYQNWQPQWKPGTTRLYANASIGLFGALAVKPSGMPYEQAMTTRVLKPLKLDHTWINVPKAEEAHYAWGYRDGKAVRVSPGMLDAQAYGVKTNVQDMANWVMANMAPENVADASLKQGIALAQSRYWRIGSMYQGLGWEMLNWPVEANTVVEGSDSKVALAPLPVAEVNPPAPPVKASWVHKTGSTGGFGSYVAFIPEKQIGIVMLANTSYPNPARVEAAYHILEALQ
Procedure: as §1

[3] = test system: KP1081 (NDM-1, TEM-1, SHV-11, CMY-6, CTX-M-15); assay type: cell-based, Klebsiella pneumoniae; conditions: KP1081; alone
From the text: (§2) The results are present in Table 6.
(§3) The results are present in Table 7.

[4] = test system: KP1087 (KPC-2, CTX-M-15, SHV-11, TEM-1); assay type: cell-based, Klebsiella pneumoniae; conditions: KP1087; alone
From the text: as §2, §3

[5] = nitrocefin, read-out: Ki (CMY-2, NCF)

T1 sequence (Q9F663 25-293, looked up, species assumed): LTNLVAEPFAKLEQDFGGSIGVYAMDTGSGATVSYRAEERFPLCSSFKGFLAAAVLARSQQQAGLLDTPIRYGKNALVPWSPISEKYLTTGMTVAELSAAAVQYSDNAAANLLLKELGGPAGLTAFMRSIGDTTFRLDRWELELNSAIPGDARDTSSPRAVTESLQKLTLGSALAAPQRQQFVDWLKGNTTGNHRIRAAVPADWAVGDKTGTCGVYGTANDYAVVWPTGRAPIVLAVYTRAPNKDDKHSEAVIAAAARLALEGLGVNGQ

Q: Which results are given for Cn1cnnc1S[C@H]1Cc2cccc(C(=O)O)c2OB1O [Compound 15, (R)-2-hydroxy-3-(4-methyl-4H-1,2,4-triazol-3-ylthio)-3,4-dihydro-2H-benzo[e][1,2]oxaborinine-8-carboxylic acid]?
A: Ki (KPC-2 [1]): 0.01 to 0.1 µM; Ki (NDM-1): < 0.01 µM; Ki (CMY-2; [5]): < 0.1 µM; Ki (CTX-M-14): < 0.1 µM; Ki (KPC-2 [2]): 0.1 to 1 µM; Ki (OXA-48): < 0.1 µM; Ki (SHV-12): < 0.1 µM; Ki (P99/AmpC of ECL): < 0.1 µM

Q: Which results are given for Nc1nnc(S[C@H]2Cc3cccc(C(=O)O)c3OB2O)s1 [Compound 4, (R)-3-(5-amino-1,3,4-thiadiazol-2-ylthio)-2-hydroxy-3,4-dihydro-2H-benzo[e][1,2]oxaborinine-8-carboxylic acid]?
A: Ki (CMY-2; [5]): < 0.1 µM; Ki (CTX-M-14): < 0.1 µM; Ki (OXA-48): < 0.1 µM; Ki (SHV-12): < 0.1 µM; Ki (P99/AmpC of ECL): < 0.1 µM

Q: NC(=O)CCS[C@H]1Cc2cccc(C(=O)O)c2OB1O [Compound 9, (R)-3-(3-amino-3-oxopropylthio)-2-hydroxy-3,4-dihydro-2H-benzo[e][1,2]oxaborinine-8-carboxylic acid] was tested. Which Ki (CMY-2; [5]) did it give?
A: < 0.1 µM

Q: What about the Ki (CTX-M-14) of the same molecule?
A: < 0.1 µM

Q: What about the Ki (KPC-2 [2]) of the same molecule?
A: < 0.1 µM

Q: And the Ki (OXA-48)?
A: < 0.1 µM

Q: And the Ki (SHV-12)?
A: 0.1 to 1 µM

Q: What about the Ki (P99/AmpC of ECL) of the same molecule?
A: < 0.1 µM

Q: Which results are given for O=C(O)c1cccc2c1OB(O)[C@@H](OC1CNC1)C2 [Compound 18, (R)-3-(azetidin-3-yloxy)-2-hydroxy-3,4-dihydro-2H-benzo[e][1,2]oxaborinine-8-carboxylic acid]?
A: Ki (CTX-M-14): 0.1 to 1 µM; Ki (KPC-2 [2]): 0.1 to 1 µM; Ki (OXA-48): < 0.1 µM; Ki (SHV-12): < 0.1 µM; Ki (P99/AmpC of ECL): 0.1 to 1 µM

Q: Which results are given for CC(=O)Nc1nnc(S[C@H]2Cc3cccc(C(=O)O)c3OB2O)s1 [Compound 7, (R)-3-(5-acetamido-1,3,4-thiadiazol-2-ylthio)-2-hydroxy-3,4-dihydro-2H-benzo[e][1,2]oxaborinine-8-carboxylic acid]?
A: Ki (CMY-2; [5]): < 0.1 µM; Ki (CTX-M-14): < 0.1 µM; Ki (OXA-48): < 0.1 µM; Ki (SHV-12): < 0.1 µM; Ki (P99/AmpC of ECL): < 0.1 µM

Q: Which Ki (CMY-2; [5]) does the source give for NC(=O)CC1Cc2cccc(C(=O)O)c2OB1O (centres unmarked) [Compound 22, 3-(2-amino-2-oxoethyl)-2-hydroxy-3,4-dihydro-2H-benzo[e][1,2]oxaborinine-8-carboxylic acid] here?
A: < 0.1 µM

Q: What about the Ki (CTX-M-14) of the same molecule?
A: < 0.1 µM

Q: And the Ki (KPC-2 [2])?
A: < 0.1 µM

Q: And the Ki (OXA-48)?
A: < 0.1 µM

Q: And the Ki (SHV-12)?
A: < 0.1 µM

Q: What about the Ki (P99/AmpC of ECL) of the same molecule?
A: < 0.1 µM

Q: O=C(O)c1cccc2c1OB(O)[C@@H](Sc1c[nH]nn1)C2 [Compound 12, (R)-3-(1H-1,2,3-triazol-4-ylthio)-2-hydroxy-3,4-dihydro-2H-benzo[e][1,2]oxaborinine-8-carboxylic acid] was tested. Which Ki (KPC-2 [2]) did it give?
A: 0.1 to 1 µM

Q: For NC(=O)CS[C@H]1Cc2cccc(C(=O)O)c2OB1O [Compound 3, (R)-3-(2-amino-2-oxoethylthio)-2-hydroxy-3,4-dihydro-2H-benzo[e][1,2]oxaborinine-8-carboxylic acid], which Ki (KPC-2 [1]) is on record?
A: 0.01 to 0.1 µM

Q: What about the Ki (CMY-2; [5]) of the same molecule?
A: < 0.1 µM

Q: What about the Ki (CTX-M-14) of the same molecule?
A: < 0.1 µM

Q: What about the Ki (KPC-2 [2]) of the same molecule?
A: < 0.1 µM

Q: What about the Ki (OXA-48) of the same molecule?
A: < 0.1 µM

Q: And the Ki (SHV-12)?
A: 0.1 to 1 µM

Q: And the Ki (P99/AmpC of ECL)?
A: < 0.1 µM

Q: For Nn1cnnc1S[C@H]1Cc2ccc(F)c(C(=O)O)c2OB1O [Compound 20, (R)-3-(4-amino-4H-1,2,4-triazol-3-ylthio)-7-fluoro-2-hydroxy-3,4-dihydro-2H-benzo[e][1,2]oxaborinine-8-carboxylic acid], which Ki (CTX-M-14) is on record?
A: < 0.1 µM

Q: What about the Ki (KPC-2 [2]) of the same molecule?
A: 0.1 to 1 µM

Q: And the Ki (OXA-48)?
A: 0.1 to 1 µM

Q: What about the Ki (SHV-12) of the same molecule?
A: < 0.1 µM

Q: What about the Ki (P99/AmpC of ECL) of the same molecule?
A: 0.1 to 1 µM

Q: Which results are given for O=C(O)[C@H]1/C(=C/CO)O[C@@H]2CC(=O)N21 [Clavulanic acid, reference compound]?
A: Ki (CMY-2; [5]): > 1 µM; Ki (CTX-M-14; nitrocefin, read-out: Ki (CTX-M-14, NCF)): < 0.1 µM; Ki (KPC-2 [2]): > 1 µM; Ki (OXA-48): > 1 µM

Q: For CO[C@H]1Cc2ccc(F)c(C(=O)O)c2OB1O [Compound 19, (R)-7-fluoro-2-hydroxy-3-methoxy-3,4-dihydro-2H-benzo[e][1,2]oxaborinine-8-carboxylic acid], which Ki (NDM-1) is on record?
A: > 0.1 µM

Q: What about the Ki (CTX-M-14) of the same molecule?
A: < 0.1 µM

Q: What about the Ki (KPC-2 [2]) of the same molecule?
A: < 0.1 µM

Q: What about the Ki (OXA-48) of the same molecule?
A: < 0.1 µM

Q: And the Ki (SHV-12)?
A: < 0.1 µM

Q: What about the Ki (P99/AmpC of ECL) of the same molecule?
A: < 0.1 µM

Q: For CO[C@H]1Cc2cccc(C(=O)O)c2OB1O [Compound 17, (R)-2-hydroxy-3-methoxy-3,4-dihydro-2H-benzo[e][1,2]oxaborinine-8-carboxylic acid], which Ki (CTX-M-14) is on record?
A: < 0.1 µM

Q: And the Ki (KPC-2 [2])?
A: < 0.1 µM

Q: And the Ki (OXA-48)?
A: < 0.1 µM

Q: What about the Ki (SHV-12) of the same molecule?
A: < 0.1 µM

Q: And the Ki (P99/AmpC of ECL)?
A: < 0.1 µM

Q: For CS[C@H]1Cc2cccc(C(=O)O)c2OB1O [Compound 16, (R)-2-hydroxy-3-(methylthio)-3,4-dihydro-2H-benzo[e][1,2]oxaborinine-8-carboxylic acid], which Ki (KPC-2 [1]) is on record?
A: 0.01 to 0.1 µM

Q: What about the Ki (NDM-1) of the same molecule?
A: > 0.1 µM

Q: What about the Ki (CTX-M-14) of the same molecule?
A: < 0.1 µM

Q: What about the Ki (KPC-2 [2]) of the same molecule?
A: < 0.1 µM

Q: And the Ki (OXA-48)?
A: < 0.1 µM

Q: And the Ki (SHV-12)?
A: 0.1 to 1 µM

Q: What about the Ki (P99/AmpC of ECL) of the same molecule?
A: < 0.1 µM

Q: With CC(=N)S[C@H]1Cc2cccc(C(=O)O)c2OB1O [Compound 10, (R)-2-hydroxy-3-(1-iminoethylthio)-3,4-dihydro-2H-benzo[e][1,2]oxaborinine-8-carboxylic acid] as the molecule, how does the Ki (KPC-2 [2]) read?
A: 0.1 to 1 µM

Q: Which Ki (CMY-2; [5]) does the source give for O=C(O)c1cccc2c1OB(O)[C@@H](Sc1nccs1)C2 [Compound 11, (R)-2-hydroxy-3-(thiazol-2-ylthio)-3,4-dihydro-2H-benzo[e][1,2]oxaborinine-8-carboxylic acid] here?
A: < 0.1 µM

Q: And the Ki (OXA-48)?
A: < 0.1 µM

Q: What about the Ki (SHV-12) of the same molecule?
A: < 0.1 µM

Q: And the Ki (P99/AmpC of ECL)?
A: < 0.1 µM

Q: Which “Carbapenem MIC alone” value [3] does the source give for C[C@@H](O)[C@H]1C(=O)N2C(C(=O)O)=C(S[C@@H]3CN[C@H](CNS(N)(=O)=O)C3)[C@H](C)[C@H]12 [Doripenem] here?
A: Z (MIC of greater than 10 μg/mL)

Q: And the “Carbapenem MIC alone” value [4]?
A: Z (MIC of greater than 10 μg/mL)

Q: Which Ki (KPC-2 [1]) does the source give for O=C(O)c1cccc2c1OB(O)[C@@H](Sc1nnc[nH]1)C2 [Compound 2, (R)-3-(4H-1,2,4-triazol-3-ylthio)-2-hydroxy-3,4-dihydro-2H-benzo[e][1,2]oxaborinine-8-carboxylic acid] here?
A: 0.01 to 0.1 µM

Q: What about the Ki (CMY-2; [5]) of the same molecule?
A: 0.1 to 1 µM

Q: What about the Ki (CTX-M-14) of the same molecule?
A: 0.1 to 1 µM

Q: What about the Ki (KPC-2 [2]) of the same molecule?
A: 0.1 to 1 µM

Q: What about the Ki (OXA-48) of the same molecule?
A: < 0.1 µM

Q: And the Ki (SHV-12)?
A: < 0.1 µM

Q: What about the Ki (P99/AmpC of ECL) of the same molecule?
A: 0.1 to 1 µM

Q: Which results are given for Nc1nnc(S[C@H]2Cc3ccc(F)c(C(=O)O)c3OB2O)s1 [Compound 23, (R)-3-(5-amino-1,3,4-thiadiazol-2-ylthio)-7-fluoro-2-hydroxy-3,4-dihydro-2H-benzo[e][1,2]oxaborinine-8-carboxylic acid]?
A: Ki (CTX-M-14): < 0.1 µM; Ki (KPC-2 [2]): < 0.1 µM; Ki (OXA-48): < 0.1 µM; Ki (SHV-12): < 0.1 µM; Ki (P99/AmpC of ECL): < 0.1 µM

Q: What does the source list for CSc1ccc2c(c1C(=O)O)OB(O)[C@@H](Sc1nncn1N)C2 [Compound 25, (R)-3-(4-amino-4H-1,2,4-triazol-3-ylthio)-2-hydroxy-7-(methylthio)-3,4-dihydro-2H-benzo[e][1,2]oxaborinine-8-carboxylic acid]?
A: Ki (CTX-M-14): < 0.1 µM; Ki (KPC-2 [2]): 0.1 to 1 µM; Ki (OXA-48): < 0.1 µM; Ki (SHV-12): < 0.1 µM; Ki (P99/AmpC of ECL): 0.1 to 1 µM

Q: What does the source list for C[C@]1(Cn2ccnn2)[C@H](C(=O)O)N2C(=O)C[C@H]2S1(=O)=O [Tazobactam, reference compound]?
A: Ki (CMY-2): 0.1 to 1 µM; Ki (KPC-2 [2]): > 1 µM; Ki (OXA-48): 0.1 to 1 µM

Q: How did the “Carbapenem MIC alone” value [3] turn out when C[C@@H](O)[C@H]1C(=O)N2C(C(=O)[O-])=C(SC3Cn4cnc[n+]4C3)[C@H](C)[C@H]12 (some centres unmarked) [Biapenem] was run?
A: Z (MIC of greater than 10 μg/mL)

Q: And the “Carbapenem MIC alone” value [4]?
A: Z (MIC of greater than 10 μg/mL)

Q: What does the source list for Cn1cnnc1S[C@H]1Cc2ccc(F)c(C(=O)O)c2OB1O [Compound 24, (R)-7-fluoro-2-hydroxy-3-(4-methyl-4H-1,2,4-triazol-3-ylthio)-3,4-dihydro-2H-benzo[e][1,2]oxaborinine-8-carboxylic acid]?
A: Ki (CTX-M-14): < 0.1 µM; Ki (KPC-2 [2]): 0.1 to 1 µM; Ki (OXA-48): < 0.1 µM; Ki (SHV-12): < 0.1 µM; Ki (P99/AmpC of ECL): 0.1 to 1 µM
